# Data reported in PubChem BioAssay (NCI).
#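 These data come from cells grown in 96-well plates and exposed to compound for 48 hours at five concentrations. Definition used: TGI = concentration required for complete inhibition of growth.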
# Assays:
# Assay in all cases: NCI anticancer screen, dose series, 48 h
# A498 renal = tested on: A498 renal
# EKVX NSCLC = tested on: EKVX NSCLC
# HL-60(TB) leukemia = tested on: HL-60(TB) leukemia
# HOP-62 NSCLC = tested on: HOP-62 NSCLC
# IGROV1 ovarian = tested on: IGROV1 ovarian
# LOX IMVI melanoma = tested on: LOX IMVI melanoma
# MOLT-4 leukemia = tested on: MOLT-4 leukemia
# OVCAR-3 ovarian = tested on: OVCAR-3 ovarian
# OVCAR-4 ovarian = tested on: OVCAR-4 ovarian
# SF-268 CNS = tested on: SF-268 CNS
# SK-MEL-28 melanoma = tested on: SK-MEL-28 melanoma
# SN12C renal = tested on: SN12C renal
# SNB-19 CNS = tested on: SNB-19 CNS
# SW-620 colon = tested on: SW-620 colon
# U251 CNS = tested on: U251 CNS
# ACHN renal = tested on: ACHN renal
# SF-295 CNS = tested on: SF-295 CNS
# MCF7 breast = tested on: MCF7 breast
smiles,measurement,setting,value
O=c1oc2ccccc2c(O)c1C(c1ccc([N+](=O)[O-])cc1)c1c(O)c2ccccc2oc1=O,TGI,A498 renal,> 100 µM
same,TGI,EKVX NSCLC,> 100 µM
same,TGI,HL-60(TB) leukemia,> 100 µM
same,TGI,HOP-62 NSCLC,> 100 µM
same,TGI,IGROV1 ovarian,> 100 µM
same,TGI,LOX IMVI melanoma,> 100 µM
same,TGI,MOLT-4 leukemia,> 100 µM
same,TGI,OVCAR-3 ovarian,> 100 µM
same,TGI,OVCAR-4 ovarian,> 100 µM
same,TGI,SF-268 CNS,> 100 µM
same,TGI,SK-MEL-28 melanoma,> 100 µM
same,TGI,SN12C renal,> 100 µM
same,TGI,SNB-19 CNS,> 100 µM
same,TGI,SW-620 colon,> 100 µM
same,TGI,U251 CNS,> 100 µM
CCCN(CCC)C(=O)Cc1c2n(c3ccccc13)CCCc1ccccc1-2,TGI,ACHN renal,25.1 µM
same,TGI,EKVX NSCLC,28.5 µM
same,TGI,HL-60(TB) leukemia,37.1 µM
same,TGI,HOP-62 NSCLC,30.3 µM
same,TGI,LOX IMVI melanoma,29.1 µM
same,TGI,MOLT-4 leukemia,32.9 µM
same,TGI,OVCAR-3 ovarian,29.5 µM
same,TGI,OVCAR-4 ovarian,26.2 µM
same,TGI,SF-268 CNS,28.5 µM
same,TGI,SF-295 CNS,22.4 µM
same,TGI,SK-MEL-28 melanoma,29.9 µM
same,TGI,SN12C renal,29.2 µM
same,TGI,SNB-19 CNS,27.7 µM
same,TGI,SW-620 colon,30.2 µM
same,TGI,U251 CNS,29.4 µM
COc1cc([C@@H]2c3cc4c(cc3[C@@H](NC(=O)c3ccc(C(C)=O)cc3)C3COC(=O)[C@@H]32)OCO4)cc(OC)c1O (stereo partly specified),TGI,A498 renal,5.87 µM
same,TGI,ACHN renal,1.75 µM
same,TGI,EKVX NSCLC,17.6 µM
same,TGI,HL-60(TB) leukemia,0.912 µM
same,TGI,HOP-62 NSCLC,1.35 µM
same,TGI,IGROV1 ovarian,5.71 µM
same,TGI,LOX IMVI melanoma,4.68 µM
same,TGI,MOLT-4 leukemia,29.9 µM
same,TGI,OVCAR-3 ovarian,7.61 µM
same,TGI,OVCAR-4 ovarian,> 100 µM
same,TGI,SF-268 CNS,> 100 µM
same,TGI,SF-295 CNS,> 100 µM
same,TGI,SK-MEL-28 melanoma,33.6 µM
same,TGI,SN12C renal,2.03 µM
same,TGI,SNB-19 CNS,> 100 µM
same,TGI,SW-620 colon,12.3 µM
same,TGI,U251 CNS,1.65 µM
CC(=O)C1CC2(c3ccccc3)C(=O)c3ccccc3N2O1 (stereo unspecified),TGI,A498 renal,> 100 µM
same,TGI,ACHN renal,> 100 µM
same,TGI,EKVX NSCLC,> 100 µM
same,TGI,HL-60(TB) leukemia,> 100 µM
same,TGI,HOP-62 NSCLC,> 100 µM
same,TGI,IGROV1 ovarian,> 100 µM
same,TGI,MOLT-4 leukemia,> 100 µM
same,TGI,OVCAR-4 ovarian,> 100 µM
same,TGI,SF-268 CNS,> 100 µM
same,TGI,SF-295 CNS,> 100 µM
same,TGI,SK-MEL-28 melanoma,> 100 µM
same,TGI,SN12C renal,> 100 µM
same,TGI,SNB-19 CNS,> 100 µM
same,TGI,SW-620 colon,> 100 µM
same,TGI,U251 CNS,> 100 µM
CC1(Br)C(=O)NC(=O)N([C@H]2C[C@H](O)[C@@H](CO)O2)C1N=[N+]=[N-] (stereo partly specified),TGI,A498 renal,> 100 µM
same,TGI,ACHN renal,> 100 µM
same,TGI,EKVX NSCLC,> 100 µM
same,TGI,HL-60(TB) leukemia,> 100 µM
same,TGI,HOP-62 NSCLC,> 100 µM
same,TGI,IGROV1 ovarian,> 100 µM
same,TGI,LOX IMVI melanoma,> 100 µM
same,TGI,MOLT-4 leukemia,> 100 µM
same,TGI,OVCAR-3 ovarian,> 100 µM
same,TGI,OVCAR-4 ovarian,> 100 µM
same,TGI,SF-268 CNS,> 100 µM
same,TGI,SF-295 CNS,> 100 µM
same,TGI,SK-MEL-28 melanoma,> 100 µM
same,TGI,SN12C renal,> 100 µM
same,TGI,SNB-19 CNS,> 100 µM
same,TGI,SW-620 colon,> 100 µM
same,TGI,U251 CNS,> 100 µM
COC(=O)[C@@H]1C[C@H]2[C@H](c3ccccc3Br)[C@@H](OC(C)=O)[C@@H](OCc3ccccc3)ON2O1,TGI,ACHN renal,> 100 µM
same,TGI,EKVX NSCLC,> 100 µM
same,TGI,HOP-62 NSCLC,> 100 µM
same,TGI,IGROV1 ovarian,> 100 µM
same,TGI,LOX IMVI melanoma,> 100 µM
same,TGI,MCF7 breast,> 100 µM
same,TGI,MOLT-4 leukemia,> 100 µM
same,TGI,OVCAR-3 ovarian,> 100 µM
same,TGI,OVCAR-4 ovarian,> 100 µM
same,TGI,SF-268 CNS,> 100 µM
same,TGI,SF-295 CNS,> 100 µM
same,TGI,SK-MEL-28 melanoma,> 100 µM
same,TGI,SN12C renal,> 100 µM
same,TGI,SNB-19 CNS,> 100 µM
same,TGI,SW-620 colon,> 100 µM
same,TGI,U251 CNS,> 100 µM
CCOC(=O)NC(=O)c1cn(-c2ccc(CCOC(=O)CCCCCCCCC(=O)OCCc3ccc(-n4cc(C(=O)NC(=O)OCC)c(=O)[nH]c4=O)cc3)cc2)c(=O)[nH]c1=O,TGI,ACHN renal,> 100 µM
same,TGI,EKVX NSCLC,> 100 µM
same,TGI,HL-60(TB) leukemia,> 100 µM
same,TGI,HOP-62 NSCLC,> 100 µM
same,TGI,IGROV1 ovarian,> 100 µM
same,TGI,LOX IMVI melanoma,> 100 µM
same,TGI,MOLT-4 leukemia,> 100 µM
same,TGI,OVCAR-3 ovarian,> 100 µM
same,TGI,OVCAR-4 ovarian,> 100 µM
same,TGI,SF-268 CNS,> 100 µM
same,TGI,SF-295 CNS,> 100 µM
same,TGI,SK-MEL-28 melanoma,> 100 µM
same,TGI,SN12C renal,> 100 µM
same,TGI,SNB-19 CNS,> 100 µM
same,TGI,SW-620 colon,> 100 µM
same,TGI,U251 CNS,> 100 µM
C/C(=N\O)C(CN(C)C)C(c1ccccc1)c1c(O)c2ccccc2oc1=O (stereo unspecified),TGI,A498 renal,> 100 µM
same,TGI,EKVX NSCLC,> 100 µM
same,TGI,HL-60(TB) leukemia,> 100 µM
same,TGI,HOP-62 NSCLC,> 100 µM
same,TGI,IGROV1 ovarian,> 100 µM
same,TGI,LOX IMVI melanoma,> 100 µM
same,TGI,MOLT-4 leukemia,> 100 µM
same,TGI,OVCAR-4 ovarian,> 100 µM
same,TGI,SF-268 CNS,> 100 µM
same,TGI,SF-295 CNS,> 100 µM
same,TGI,SK-MEL-28 melanoma,> 100 µM
same,TGI,SN12C renal,> 100 µM
same,TGI,SNB-19 CNS,> 100 µM
same,TGI,SW-620 colon,> 100 µM
same,TGI,U251 CNS,> 100 µM
COC(=O)C(=O)C(C(=O)C(=O)Nc1ccc([N+](=O)[O-])cc1C#N)c1nc2ccc([N+](=O)[O-])cc2[nH]c1=O (stereo unspecified),TGI,A498 renal,> 100 µM
same,TGI,ACHN renal,> 100 µM
same,TGI,EKVX NSCLC,> 100 µM
same,TGI,HL-60(TB) leukemia,> 100 µM
same,TGI,HOP-62 NSCLC,> 100 µM
same,TGI,LOX IMVI melanoma,> 100 µM
same,TGI,MOLT-4 leukemia,> 100 µM
same,TGI,OVCAR-3 ovarian,> 100 µM
same,TGI,OVCAR-4 ovarian,> 100 µM
same,TGI,SF-268 CNS,> 100 µM
same,TGI,SF-295 CNS,> 100 µM
same,TGI,SN12C renal,> 100 µM
same,TGI,SNB-19 CNS,> 100 µM
same,TGI,SW-620 colon,> 100 µM
same,TGI,U251 CNS,> 100 µM
O=C(CCNC(=O)OCc1ccccc1)OCCCNC(=O)OCc1ccccc1,TGI,ACHN renal,> 100 µM
same,TGI,HL-60(TB) leukemia,> 100 µM
same,TGI,HOP-62 NSCLC,> 100 µM
same,TGI,IGROV1 ovarian,> 100 µM
same,TGI,LOX IMVI melanoma,> 100 µM
same,TGI,MCF7 breast,> 100 µM
same,TGI,MOLT-4 leukemia,> 100 µM
same,TGI,OVCAR-3 ovarian,> 100 µM
same,TGI,OVCAR-4 ovarian,> 100 µM
same,TGI,SF-268 CNS,> 100 µM
same,TGI,SF-295 CNS,> 100 µM
same,TGI,SK-MEL-28 melanoma,> 100 µM
same,TGI,SN12C renal,> 100 µM
same,TGI,SNB-19 CNS,> 100 µM
same,TGI,SW-620 colon,> 100 µM
same,TGI,U251 CNS,> 100 µM
CNC(=S)N/N=C(\C)c1ccc(OC)cc1O,TGI,A498 renal,> 100 µM
same,TGI,ACHN renal,> 100 µM
same,TGI,EKVX NSCLC,> 100 µM
same,TGI,HL-60(TB) leukemia,> 100 µM
same,TGI,HOP-62 NSCLC,> 100 µM
same,TGI,IGROV1 ovarian,> 100 µM
same,TGI,LOX IMVI melanoma,> 100 µM
same,TGI,MOLT-4 leukemia,> 100 µM
same,TGI,OVCAR-3 ovarian,> 100 µM
same,TGI,OVCAR-4 ovarian,94.2 µM
same,TGI,SF-268 CNS,> 100 µM
same,TGI,SF-295 CNS,> 100 µM
same,TGI,SK-MEL-28 melanoma,> 100 µM
same,TGI,SN12C renal,> 100 µM
same,TGI,SNB-19 CNS,> 100 µM
same,TGI,SW-620 colon,> 100 µM
same,TGI,U251 CNS,> 100 µM
CCOP(=O)(C/C(=N/NC(C)(C)C)C(=O)Nc1nc2ccc(C)cc2s1)OCC,TGI,A498 renal,> 100 µM
same,TGI,ACHN renal,> 100 µM
same,TGI,EKVX NSCLC,> 100 µM
same,TGI,HL-60(TB) leukemia,> 100 µM
same,TGI,HOP-62 NSCLC,> 100 µM
same,TGI,IGROV1 ovarian,> 100 µM
same,TGI,LOX IMVI melanoma,> 100 µM
same,TGI,MOLT-4 leukemia,> 100 µM
same,TGI,OVCAR-3 ovarian,> 100 µM
same,TGI,OVCAR-4 ovarian,> 100 µM
same,TGI,SF-268 CNS,> 100 µM
same,TGI,SF-295 CNS,> 100 µM
same,TGI,SK-MEL-28 melanoma,> 100 µM
same,TGI,SN12C renal,> 100 µM
same,TGI,SNB-19 CNS,> 100 µM
same,TGI,SW-620 colon,> 100 µM
same,TGI,U251 CNS,> 100 µM
CCOC(=O)c1c(SCC#N)n(-c2ccccc2)c(=S)n(-c2ccccc2)c1=O,TGI,ACHN renal,> 100 µM
same,TGI,EKVX NSCLC,> 100 µM
same,TGI,HL-60(TB) leukemia,> 100 µM
same,TGI,HOP-62 NSCLC,> 100 µM
same,TGI,IGROV1 ovarian,> 100 µM
same,TGI,LOX IMVI melanoma,> 100 µM
same,TGI,MCF7 breast,> 100 µM
same,TGI,MOLT-4 leukemia,67.6 µM
same,TGI,OVCAR-3 ovarian,> 100 µM
same,TGI,OVCAR-4 ovarian,> 100 µM
same,TGI,SF-268 CNS,> 100 µM
same,TGI,SF-295 CNS,> 100 µM
same,TGI,SK-MEL-28 melanoma,> 100 µM
same,TGI,SN12C renal,> 100 µM
same,TGI,SNB-19 CNS,> 100 µM
same,TGI,SW-620 colon,> 100 µM
same,TGI,U251 CNS,> 100 µM
CN(C)CC1CCC(CN(C)C)C1=NO (stereo unspecified),TGI,ACHN renal,> 100 µM
same,TGI,EKVX NSCLC,> 100 µM
same,TGI,HOP-62 NSCLC,> 100 µM
same,TGI,IGROV1 ovarian,> 100 µM
same,TGI,LOX IMVI melanoma,> 100 µM
same,TGI,MOLT-4 leukemia,> 100 µM
same,TGI,OVCAR-3 ovarian,> 100 µM
same,TGI,OVCAR-4 ovarian,> 100 µM
same,TGI,SF-268 CNS,> 100 µM
same,TGI,SF-295 CNS,> 10 µM
same,TGI,SK-MEL-28 melanoma,> 100 µM
same,TGI,SN12C renal,> 100 µM
same,TGI,SW-620 colon,> 100 µM
